Read-outs that look alike come from different tables or passages of the source.
Tested on: KARN cells (Jurkat 2C4)
Assay: cells
Format: cell-based
How it was run: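 Luminescence (Steady-Glo, 10 min, room temperature) measured next day in KARN Jurkat 2C4 cells given compounds at up to 40 μM final with 0.4% DMSO. Percent activation normalised to DMSO (0%) and 2 μM SAHA (100%), fitted by 4-parameter curve.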

[1] = Homo sapiens, Jurkat, read-out: Karn EC50 (nM) 0.1% NHS, 0.1% normal human serum
[2] = Homo sapiens, Jurkat, read-out: Karn EC50 (nM) 5% NHS, 5% normal human serum
[3] = read-out: Karn EC50 (nM) 0.1% NHS, 0.1% normal human serum
[4] = read-out: Karn EC50 (nM) 5% NHS, 5% normal human serum

CCC(=O)CCCCC[C@H](NC(=O)[C@H]1CC[C@]2(CC1)OC(=O)c1ncccc12)c1ncc(-c2cc3ccccc3nc2OC)[nH]1 [Compound 141]
EC50 [1]: 146 nM | EC50 [2]: 1450 nM

CCC(=O)CCCCC[C@H](NC(=O)C1(C)CC12CCN(C(C)C)CC2)c1ncc(-c2ccc3nc(C)ccc3c2)[nH]1 (single isomer, unassigned) [Compound 152, (1S or 1R)-1-methyl-6-(1-methylethyl)-N-{(1S)-1-[5-(2-methylquinolin-6-yl)-1H-imidazol-2-yl]-7-oxononyl}-6-azaspiro[2.5]octane-1-carboxamide]
EC50 [1]: 128 nM | EC50 [2]: 96 nM

CCC(=O)CCCCC[C@H](NC(=O)[C@H]1CC12CCN(CC)CC2)c1nc(-c2cc3ccc(C)nc3cc2OC)cn1COC(=O)C(C)(C)C [Compound 215, {2-[(1S)-1-({[(1S)-6-ethyl-6-azaspiro[2.5]oct-1-yl]carbonyl}amino)-7-oxononyl]-4-(7-methoxy-2-methylquinolin-6-yl)-1H-imidazol-1-yl}methyl 2,2-dimethylpropanoate]
EC50 [1]: 93 nM | EC50 [2]: 93 nM

CCN1CCC2(CC1)C[C@@H]2C(=O)N[C@@H](CCCCCC(=O)CC1CC1)c1ncc(-c2cc3ccc(C)nc3cc2OC)[nH]1 [Compound 165]
EC50 [1]: 140 nM | EC50 [2]: 385 nM

CCC(=O)CCCCC[C@H](NC(=O)C1=NOC2(CCN(C)CC2)C1)c1ncc(-c2cc3ccccc3nc2OC)[nH]1 [Compound 105]
EC50 [1]: 126 nM | EC50 [2]: 942 nM

CCC(=O)CCCCC[C@H](NC(=O)[C@H]1CC12CCN(C)CC2)c1ncc(-c2ccc3c(c2)C2CCC3C2)[nH]1 (stereo partly drawn) [Compound 74]
EC50 [1]: 351 nM | EC50 [2]: 376 nM

CCC(=O)CCCCC[C@H](NC(=O)[C@H]1CC12CCN(C)CC2)c1ncc(-c2ccc3nc(C4CC4)ccc3c2)o1 [Compound 121]
EC50 [1]: 232 nM | EC50 [2]: 242 nM

CCC(=O)CCCCC[C@H](NC(=O)C1CC12CCN(C)C(C)(C)C2)c1ncc(-c2ccc3nc(C)ccc3c2)[nH]1 (single isomer, unassigned) [Compound 131]
EC50 [3]: 126 nM | EC50 [4]: 128 nM

CCC(=O)CCCCC[C@H](NC(=O)C1CN(C)C1)c1ncc(-c2ccc3c(c2)C2CCC3C2)[nH]1 (stereo partly drawn) [Compound 73, 1-methyl-N-{(1S)-7-oxo-1-[5-(1,2,3,4-tetrahydro-1,4-methanonaphthalen-6-yl)-1H-imidazol-2-yl]nonyl}azetidine-3-carboxamide]
EC50 [1]: 740 nM | EC50 [2]: 1450 nM

CCC(=O)CCCCC[C@H](NC(=O)C1CC12CCN(C)C(C)(C)C2)c1ncc(-c2ccc3nc(C)ccc3c2)[nH]1 (single isomer, unassigned) [Compound 132]
EC50 [3]: 169 nM | EC50 [4]: 281 nM

CCC(=O)CCCCC[C@H](NC(=O)C1=NOC2(CCN(C)CC2)C1)c1ncc(-c2cc3ccc(C)nc3cc2OC)o1 [Compound 196]
EC50 [1]: 154 nM | EC50 [2]: 162 nM

CCC(=O)CCCCC[C@H](NC(=O)[C@H]1CC12CCN(C)CC2)c1ncc(-c2ccc(C3CC3)nc2)[nH]1 [Compound 139]
EC50 [1]: 532 nM | EC50 [2]: 552 nM

CCC(=O)CCCCC[C@H](NC(=O)CN1CCC2(CC1)CC2)c1ncc(-c2ccc3nn(C)cc3c2)[nH]1 [Compound 155]
EC50 [1]: 354 nM | EC50 [2]: 398 nM

CCC(=O)CCCCC[C@H](NC(=O)[C@H]1CC[C@]2(CC1)OC(=O)c1cccnc12)c1ncc(-c2ccc3nc(C4CC4)ccc3c2)o1 [Compound 123]
EC50 [1]: 868 nM | EC50 [2]: 3900 nM

CCC(=O)CCCCC[C@H](NC(=O)[C@H]1CC12CCN(C)CC2)c1ncc(-c2ccc(-c3ccc(C4CC4)nc3)cc2)o1 [Compound 143]
EC50 [1]: 1240 nM | EC50 [2]: 1330 nM

CCC(=O)CCCCC[C@H](NC(=O)C1=NOC2(CCN(C)CC2)C1)c1ncc(-c2cc3ccc(=O)n(C)c3cc2OC)o1 [Compound 193]
EC50 [1]: 284 nM | EC50 [2]: 297 nM

CCC(=O)CCCCC[C@H](NC(=O)C1=NOC2(CCN(CC)CC2)C1)c1ncc(-c2cc3ccc(C)nc3cc2OC)[nH]1 [Compound 207]
EC50 [1]: 55 nM | EC50 [2]: 58 nM

CCC(=O)CCCCC[C@H](NC(=O)C1=NOC2(CCN(C)CC2)C1)c1ncc(-c2cc3ccncc3nc2OC)o1 [Compound 216]
EC50 [1]: 194 nM | EC50 [2]: 278 nM

CCC(=O)CCCCC[C@H](NC(=O)[C@@]1(C)CC12CCN(C(C)C)CC2)c1ncc(-c2ccc3nc(C)ccc3c2)[nH]1 (single isomer, unassigned) [Compound 151, (1S or 1R)-1-methyl-6-(1-methylethyl)-N-{(1S)-1-[5-(2-methylquinolin-6-yl)-1H-imidazol-2-yl]-7-oxononyl}-6-azaspiro[2.5]octane-1-carboxamide]
EC50 [1]: 583 nM | EC50 [2]: 864 nM

CCC(=O)CCCCC[C@H](N)c1ncc(-c2ccc3nc(C)ccc3c2)[nH]1 [Compound 178]
EC50 [1]: 6790 nM | EC50 [2]: 10400 nM

CCC(=O)CCCCC[C@H](NC(=O)[C@H]1CC12CCN(C)CC2)c1ncc(-c2ccc3nc(N(C)C)ccc3c2)[nH]1 [Compound 66, (1S)—N-[(1S)-1-{5-[2-(dimethylamino)quinolin-6-yl]-1H-imidazol-2-yl}-7-oxononyl]-6-methyl-6-azaspiro[2.5]octane-1-carboxamide]
EC50 [1]: 27 nM | EC50 [2]: 14 nM

From US12590099B2, “Inhibitors of histone deacetylase useful for the treatment or prevention of HIV infection” (Merck Sharp & Dohme LLC, priority 2018, dated 2026)
